In PubChem BioAssay (NCI):
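How tested: cells in 96-well plates exposed to compound for 48 hours at five concentrations. The concentration for 50% growth inhibition is given as GI50. TGI is the concentration that stops growth completely.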

How the values were obtained:
Assay in all cases: DTP human tumour cell line panel, 48 h
HCT-15 colon = test system: HCT-15 colon
OVCAR-5 ovarian = test system: OVCAR-5 ovarian
UACC-257 melanoma = test system: UACC-257 melanoma
SK-MEL-28 melanoma = test system: SK-MEL-28 melanoma
HS 578T breast = test system: HS 578T breast
SF-268 CNS = test system: SF-268 CNS
SN12C renal = test system: SN12C renal
CCRF-CEM leukemia = test system: CCRF-CEM leukemia
MDA-N = test system: MDA-N
NCI-H522 lung = test system: NCI-H522 lung

Row | Structure (SMILES) | TGI (HCT-15 colon) [µM] | TGI (OVCAR-5 ovarian) [µM] | TGI (UACC-257 melanoma) [µM] | TGI (SK-MEL-28 melanoma) [µM] | TGI (HS 578T breast) [µM] | TGI (SF-268 CNS) [µM] | TGI (SN12C renal) [µM] | TGI (CCRF-CEM leukemia) [µM] | TGI (MDA-N) [µM] | TGI (NCI-H522 lung) [µM] | GI50 (HCT-15 colon) [µM] | GI50 (OVCAR-5 ovarian) [µM] | GI50 (UACC-257 melanoma) [µM] | GI50 (SK-MEL-28 melanoma) [µM] | GI50 (HS 578T breast) [µM] | GI50 (SF-268 CNS) [µM] | GI50 (SN12C renal) [µM] | GI50 (CCRF-CEM leukemia) [µM]
1 | CC(C)=CCC12Cc3ccc(O)cc3C(C(C)CN1)C2C (stereo not drawn) | > 100 | > 100 | > 100 | > 100 | > 100 | > 100 | > 100 | > 100 | – | – | – | – | – | – | – | – | – | –
2 | C[C@H](c1ccccc1)N1C(=O)[C@@H](OCc2ccccc2)[C@H]1[C@H](COC(=O)COCc1ccccc1)OCc1ccccc1 | > 100 | > 100 | – | > 100 | > 100 | > 100 | > 100 | > 100 | > 100 | > 100 | – | – | – | – | – | – | – | –
3 | COC(=O)C1=C(C(=O)OC)SC(=C2SC3=C(SC(=C4SCCS4)S3)S2)S1 | – | > 100 | > 100 | > 100 | > 100 | > 100 | > 100 | > 100 | > 100 | > 100 | – | – | – | – | – | – | – | –
4 | N#Cc1nc(C2CCC(=O)O2)oc1N (stereo not drawn) | > 100 | > 100 | > 100 | > 100 | > 100 | > 100 | > 100 | > 100 | > 100 | – | – | – | – | – | – | – | – | –
5 | Nc1c(S(N)(=O)=O)cc(S(N)(=O)=O)cc1S(N)(=O)=O | > 100 | > 100 | > 100 | > 100 | > 100 | > 100 | > 100 | – | > 100 | > 100 | – | – | – | – | – | – | – | –
6 | CCCO/N=[N+](\[O-])N(CC)CC | > 100 | > 100 | > 100 | > 100 | – | > 100 | > 100 | > 100 | – | > 100 | – | – | – | – | – | – | – | –
7 | Cn1c2c(c3ccccc31)CCN1C(=O)C34CCCC3CC21S4 (stereo not drawn) | > 100 | > 100 | > 100 | > 100 | > 100 | > 100 | > 100 | – | > 100 | > 100 | – | – | – | – | – | – | – | –
8 | Oc1c(OCc2nnc(CCCCCCCCc3nnc(COc4ccc5ccccc5c4O)o3)o2)ccc2ccccc12 | > 100 | > 100 | > 100 | > 100 | – | > 100 | > 100 | – | > 100 | > 100 | – | – | – | – | – | – | – | –
9 | CCN(CCCCCCCCCCN1CC(=O)N(CCCCCCCCCCN(CC)Cc2ccccc2OC)CC1=O)Cc1ccccc1OC | 5.34 | 15.1 | 3.34 | 3.22 | 4.26 | 2.96 | 3.57 | 10.1 | – | – | 1.55 | 3.36 | 1.7 | 1.75 | 1.35 | 1.49 | 1.51 | 2.11
10 | O=[N+]([O-])/C(Cl)=C(/C(Cl)=C(Cl)Cl)N1CCCCC1 | 19.1 | 29.2 | – | 30.3 | 64.4 | 75.1 | 27.4 | 19.7 | 23.9 | 23.2 | – | – | – | – | – | – | – | –
11 | Cc1cn(CCCCCOC(=O)NC(CCCNC(N)=O)C(=O)O)c(=O)[nH]c1=O (stereo not drawn) | > 100 | > 100 | > 100 | > 100 | > 100 | > 100 | > 100 | > 100 | > 100 | – | – | – | – | – | – | – | – | –
